This is an account of results in patent US8327467B2, “Anthranilic acid derivative or salt thereof” (Toyama Chemical Co., Ltd., priority 2005, dated 2012).

Structures can show the parent of a compound that is named as a salt.

The first experiment concerns MMP-13. Kind of experiment: MMP-13 production inhibition test. It counts as cell-based. To be noted: 30 μmol/L; human cartilage derived cell line SW1353, IL-1β 10 ng/mL, 16 hours after stimulation, MMP-13 in culture supernatant by ELISA; read-out: Inhibition rate (%) at 30 μmol/L. The procedure: MMP-13 Production Inhibition Test
6.8×10^3 human cartilage derived cell line SW1353 cells were suspended in 100 μL of Dulbecco modified Eagle's medium supplemented with 10% fetal calf serum, plated on 96-well plates and cultured for 3 days. After the culture medium was changed to Dulbecco modified Eagle's medium containing 0.2% lactalbumin hydrolysate and the cells were cultured for 6 hours, test compounds were added and then IL-1β was added to obtain the final concentration of 10 ng/mL 1 hour later. 16 hours after the stimulation, supernatant was collected and the amount of MMP-13 in the culture supernatant was determined with an ELISA kit (Amersham). The inhibition rate was calculated from the amount of MMP-13 in the presence of a test compound assuming that the amount of MMP-13 was 100% in the absence of the test compound.
Background: In an ELISA, binding on a coated surface is turned into a signal by an enzyme label.
`O=C(O)c1ccc(CCc2ccccc2)cc1Nc1cccc(Cl)c1` [Example 200, 2-(3-chloroanilino)-4-phenethylbenzoic acid]: the inhibition at 30 µM stood at 97%. The same measure, in the same setting: with `COc1ccccc1Nc1cc(CCc2ccccc2)ccc1C(=O)O` [Example 181, 2-(2-Methoxyanilino)-4-phenethylbenzoic acid] the figure was 97%. Same read-out and setting: as for `O=C(O)c1ccc(CCc2ccccc2)cc1Nc1ccccc1C(F)(F)F` [Example 169, 4-phenethyl-2-(2-(trifluoromethyl)anilino)benzoic acid], the figure is 97%; as for `O=C(O)c1ccc(CCc2ccccc2)cc1Nc1ccccc1OC(F)(F)F` [Example 199, 4-Phenethyl-2-(2-(trifluoromethoxy)anilino)benzoic acid], 97%. On the same count and under the same terms, as for `O=C(O)c1ccc(CCc2ccccc2)cc1Nc1cccc2cnccc12` [Example 360, 2-((Isoquinolin-5-yl)amino)-4-phenethylbenzoic acid trifluoroacetate], the figure is 97%. In the case of `O=C(O)c1ccc(-n2cnc3ccccc32)cc1Nc1ccc(F)cc1` [Example 248, 4-(1H-benzimidazol-1-yl)-2-(4-fluoroanilino)benzoic acid trifluoroacetate], the inhibition at 30 µM stood at 84%. The same measure, in the same setting: with `O=C(O)c1ccc(-c2ccccc2)cc1Nc1ccc(F)cc1` [Example 37, 2-(4-fluoroanilino)-4-phenylbenzoic acid] the figure was 92%; with `O=C(O)c1ccc(Nc2ccccc2)cc1Nc1ccc(F)cc1` [Example 63, 4-anilino-2-(4-fluoroanilino)benzoic acid], 67%; with `O=C(O)c1ccc(CCc2ccccc2)cc1Nc1ccc(F)cc1` [Example 38, 2-(4-Fluoroanilino)-4-phenethylbenzoic acid], 97%. Same read-out and setting: as for `Cc1ccccc1Nc1cc(-c2ccc(NS(C)(=O)=O)cc2)ccc1C(=O)O` [Example 273, 4-(4-(methanesulfonamido)phenyl)-2-(2-methylanilino)benzoic acid], the figure is 83%; as for `Cc1ccccc1Nc1cc(-c2cccc(O)c2)ccc1C(=O)O` [Example 280, 4-(3-Hydroxyphenyl)-2-(2-methylanilino)benzoic acid], 90%; as for `CC(=O)c1ccc(-c2ccc(C(=O)O)c(Nc3ccc(F)cc3)c2)cc1` [Example 15, 4-(4-Acetylphenyl)-2-(4-fluoroanilino)benzoic acid], 91%. As for `O=C(O)c1ccc(-c2ccc3occc3c2)cc1Nc1ccc(F)cc1` [Example 225, 4-(Benzofuran-5-yl)-2-(4-fluoroanilino)benzoic acid], the inhibition at 30 µM stood at 98%. On the same count and under the same terms, with `O=C(O)c1ccc(CCc2ccccc2)cc1Nc1cc(-c2ccccc2)n[nH]1` [Example 329, 4-Phenethyl-2-((3-phenyl-1H-pyrazol-5-yl)amino)benzoic acid] the figure was 96%; with `COc1ccccc1-c1ccc(C(=O)O)c(Nc2ccc(F)cc2)c1` [Example 3, 2-(4-fluoroanilino)-4-(2-methoxyphenyl)benzoic acid], 53%; with `O=C(O)c1ccc(NS(=O)(=O)c2ccccc2)cc1Nc1ccc(F)cc1` [Example 91, 4-(Benzenesulfonamido)-2-(4-fluoroanilino)benzoic acid], 53%. On to `CS(=O)(=O)Nc1ccc(-c2ccc(C(=O)O)c(Nc3ccc(F)cc3)c2)cc1` [Example 12, 2-(4-Fluoroanilino)-4-(4-(methanesulfonamido)phenyl)benzoic acid], for which the inhibition at 30 µM came out at 75%.

The subject of another experiment is type II collagen-induced arthritis. Kind of experiment: Type II collagen-induced arthritis in mice. It counts as in vivo. To be noted: male DBA/1 J mice, 10 mg/kg orally once a day from the 21st day to the 35th day. The procedure: Type II Collagen-Induced Arthritis in Mice
Eight-week old male DBA/1 J mice were used (Charles River Laboratories Japan Inc.). 4 mg/mL bovine type II collagen (Collagen Gijutsu Kenshukai) dissolved in 0.01 mol/L of acetic acid aqueous solution and an equal amount of Freund's complete adjuvant (Chondorex) containing 1 mg/mL of killed tuberculosis bacillus were added to prepare an emulsion, and 0.1 mL thereof was intradermally injected at the base of tail. Similar treatment was conducted on the 21st day to cause arthritis. The test compound was suspended in 0.5% methylcellulose aqueous solution, and 10 mg/kg was orally administered once a day from the 21st day to the 35th day. In the control group,0.5% methylcellulose aqueous solution was administered in the same manner. The severity of arthritis was estimated by scoring at zero point for an animal without change; one point for an animal with swelling at the one or two finger joint or light swelling only at the carpal or tarsal joint; two points for an animal with severe swelling at the carpal or tarsal joint or with swelling at three or more finger joints; three points for an animal with severe swelling along the whole foreleg or hindleg and thus counting 12 points at the maximum for the four limbs as arthritis score. […] The inhibitory rate was determined by the following expression. […]
Turning to `O=C(O)c1ccc(CCc2ccccc2)cc1Nc1ccc(F)cc1` [Example 38, 2-(4-Fluoroanilino)-4-phenethylbenzoic acid], the “inhibitory action on arthritis (arthritis score)” value was “exhibited inhibitory action” and the “inhibitory action on bone destruction (bone destruction score, X-ray on the 36th day)” value is “exhibited inhibitory action”.
